Assay results reported in article PMC7506137, “Selective Phosphodiesterase 1 Inhibitor BTTQ Reduces Blood Pressure in Spontaneously Hypertensive and Dahl Salt Sensitive Rats: Role of Peripheral Vasodilation” (Frontiers in Physiology, 2020).

Tested on: Spontaneous Hypertensive rats (SHR)
Test: Rat telemetry, blood pressure and heart rate
Format: in vivo
Conditions: 3 mg/kg enalapril alone, twice daily oral, SHR
Source text: Male Sprague Dawley (Taconic Biosciences) rats, Spontaneous Hypertensive rats (Charles River Laboratories, United States), and Dahl Salt Sensitive rats (Medical College of Wisconsin) were implanted with transmitters (HD S10; Data Science International) for collection of BP and heart rate (HR) data. The transmitters are capable of transmitting a BP signal via a pressure catheter inserted into the abdominal aorta. Initially, a baseline was established and recorded. Each rat was then removed from its recording cage and was dosed by p.o. gavage with vehicle or compound and the animals were then returned to the recording cage. Data sampling for BP and HR was carried out in intervals at selected time points for the duration of the experiment.
All data in this manuscript were presented as mean ± SEM with a significance level of p < 0.05, and n represents the number of individual animals. The significance of differences in concentration-response curves in the ear temperature and, myograft study were calculated using t-test, compare to the vehicle group. The EC50 was calculated using GraphPad Prism 8.3 using a 4-parameter logistic non-linear curve fit model. Single-dose rat telemetry data for normal and SHR rats and repeat-dose telemetry data in Dahls salt-sensitive rats were analyzed by two-way repeated measures ANOVA. Treatment group main effects were compared by Tukey’s HSD method. All telemetry data were analyzed with GraphPad Prism 8.3.

**Q.** What does the source list for `CCOC(=O)[C@H](CCc1ccccc1)N[C@@H](C)C(=O)N1CCC[C@H]1C(=O)O` [enalapril, reference compound]?
**A.** heart rate: without affecting the heart rate; lowering of MAP: 13%
